Experimental data taken from US7214716B2, “Agonists specific for the peripheral cannabinoid receptor” (Yissum Research Development Co. of the Hebrew University of …, priority 2000, dated 2007).

Legend:
[1] = system: arachidonic acid-induced swelling of the ear in female Sabra mice; experiment: Arachidonic acid-induced ear inflammation in the mouse; type: in vivo; conditions: for arachidonic acid-induced ear swelling: injected 30 to 90 min before arachidonic acid
Procedure: The other ear was treated with […] of EtOH and served as a control. Ear swelling was assessed by measuring ear thickness with a dial thickness gauge (Mitutoyo, Japan) just before treatment and every 15 min after A′A application for 90 min. […] N=5 for each treatment group.
Ear inflammation was measured by assessing ear tissue swelling after topical application of arachidonic acid. […] J., Wagner, B., Ballaron, S. & De Young, L. M. (1984) J. Invest. Dernlatol. 82, 367–371]. […] The opposite ear served as a control ([…] ethanol). Ear thickness was determined (in 0.01 mm units) every 15 min for 90 min starting immediately after arachidonic acid application using a dial thickness gauge (Mitutoyo, Japan).

[2] = biological target: CB2 receptor (Homo sapiens, UniProt P34972); conditions: background, known compound; cited from earlier work
[3] = system: experimental autoimmune arthritis in CD-1 male mice; experiment: Experimental autoimmune arthritis (collagen type 2 in complete Freund's adjuvant); type: in vivo, mouse
Procedure: Experimental autoimmune arthritis is induced in animals by immunization with collagen type 2 in complete Freund's adjuvant.
Adult CD-1 male mice (27–33 gr), at least five per treatment group, are used in the study. Each animal is administered 100 μg/ml collagen type 2 in 0.1 mL complete Freund's adjuvant. The collagen is administered subcutaneously into the base of the tail. The volume of each hind paw is measured using a plethysmometer (commercially available from Hugo Basill of Italy) before collagen administration and on days 1, 4, 7, 10, 13, and 16 of treatment (30 minutes after drug treatment). […] All treatments are administered intraperitoneally. […] The same procedure is performed with blank cosolvent. Diclofenac is prepared at Pharmos, as a solution of 1 mg/ml. At the same time the paws are measured they are also clinically evaluated according to the method of R. O Williams, Proc. Natl. Acad. Sci. USA: 89: 9784–9788, wherein 0=normal, 1=slight swelling and erythema, 2=pronounced edematous swelling, and 3=joint rigidity.
The major arthritis related sign that is evident in experimental autoimmune arthritis is swelling of the paws. […] The differences are compared using a non parametric analysis (Wilcoxon Rank Sum Test).

[4] = system: formalin-induced peripheral pain in mice; experiment: Formalin test for peripheral pain; type: in vivo, mouse
Procedure: Pain was assessed as the total number of licks of the injected hindpaw recorded for the duration of one hr. Early (5 min) and late (25–60 min) phase pain were observed as described in Calignano, A., La Rana, G., Giuffrida, A. & Piomelli, D. (1998) Nature (London) 394, 277–280.
Pain mediated by the peripheral nervous system, was tested in the “formalin test” for cutaneous (peripheral) pain [Tjolson, A., Berge, O-G., Hunskaar, S., Rosland, J. H. and Hole, K. (1992) Pain, 51, 5–17; Calignano, A., La Rana, G., Giuffrida, A & Piomelli, D. (1998) Nature (London) 394, 277–280; and Jagger, S. I., Hasnie, F. S., Sellaturay, S. and Rice, A.S.C. (1998) Pain 76, 189–199]. […] Immediately after formalin administration pain was assessed every 5 min for 1 hr by the number of times the animal licks the formalin-injected paw.

[5] = system: acetic acid induced inflammatory bowel disease in male Sprague Dawley rats; experiment: Acetic acid induced inflammatory bowel disease; type: in vivo, rat
Procedure: Animals were clinically followed for 1 week and body weight, presence of blood in the stool, and stool consistency were monitored and recorded daily and scored on a scale of 0–4 according to the scale provided in Table 1 [Murthy et al., Dig. Dis. Sci., 38(9), 1722–1734, (1993)].
Seven days post disease induction animals were euthanized with phenobarbital (100 mg/kg i.p.), the whole colon excised, slit longitudinally, and examined under a magnifying glass. Any visible damage to the colon was recorded and scored.
Clinical outcome was analyzed using analysis of variance (ANOVA) followed by Duncan's post hoc test. A non-parametric test (Wilcox Rank Sum Test) was used to evaluate the gross pathology findings.

[6] = system: female C57/BL6 mice
Procedure: This difference in binding is reflected in the results of the pharmacological assays. […] Such effects are considered to be mediated by the CBI receptor.
R. (1993) Eur. J. Pharmacol. 231, 313–314]. At various times after injection mice were tested in four assays consecutively. The four assays were (1) motor activity (ambulation and rearing) in an open field (20×30 cm, divided into 12 squares of equal size) for 8 min; (2) immobility (“catalepsy”) on a ring of 5.5 cm diameter for 4 min; (3) body temperature with a telethermometer (Yellow Springs Instruments Co.); and (4) analgesia on a hot plate maintained at 55° C., measured as the latency (in seconds) until the first hind paw lick or jump from the plate (the latter response was rarely observed) with a maximum of 45 s.

[7] = system: EAE in Lewis rats; experiment: Experimental autoimmune encephalomyelitis (EAE); type: in vivo, rat; conditions: intravenous, treatment from day 10 to day 18 post induction
[8] = system: anesthetized rats; experiment: Blood pressure assay in anesthetized cannulated rats; type: in vivo, rat
Procedure: Systemic blood pressure was monitored in male rats (Sabra strain, 270–350 g). A chronic cannula (P 50, Clay Adams) was implanted into the femoral artery under pentobarbital anesthesia (60 mg/kg). The jugular vein was cannulated for drug administration. The arterial cannula was attached to a pressure transducer (Db23, Statham City) and the transducer was connected to a data acquisition system (CODAS software and scroller card, Dataq, Ohio). Pressure was sampled at a rate of 1/s.
Recordings were taken for 30–60 min before treatment.

[9] = system: female Sabra mice; experiment: Inhibition of intestinal motility (fecal pellets voided over 2 hr); type: in vivo, mouse
Procedure: Intestinal motility was assessed every 15 min (over a 2 hr period) by the cumulative number of fecal pellets voided in a two hour period after separating the mice into individual cages. […] By 90 min all treated groups differed from controls.
Rectal temperature was also recorded as a measure of central activity.

[10] = 40 mg/kg i.p., tested 10, 30 or 150 min after administration

Sequence of CB2 receptor (P34972 whole entry): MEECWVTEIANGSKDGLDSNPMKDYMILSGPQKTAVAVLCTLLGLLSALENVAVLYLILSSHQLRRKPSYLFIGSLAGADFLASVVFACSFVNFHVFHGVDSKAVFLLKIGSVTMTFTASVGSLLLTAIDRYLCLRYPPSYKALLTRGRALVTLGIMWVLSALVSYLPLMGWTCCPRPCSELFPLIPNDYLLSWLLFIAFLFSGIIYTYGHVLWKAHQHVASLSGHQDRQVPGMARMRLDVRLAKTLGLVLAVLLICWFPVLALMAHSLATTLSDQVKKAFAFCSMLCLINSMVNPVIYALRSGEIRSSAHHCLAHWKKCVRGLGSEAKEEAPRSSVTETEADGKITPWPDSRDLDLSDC

COc1ccc2c(c1)c(CC(=O)O)c(C)n2C(=O)c1ccc(Cl)cc1 [indomethacin]
arachidonic acid-induced ear swelling ([1]; 20 mg/kg i.p.): significant reduction of arachidonic acid-induced ear swelling | anti-inflammatory effect compared with HU-308 (50 mg/kg) ([1]; indomethacin 20 mg/kg i.p.): greater than that produced by HU-308

Cc1c(C(=O)NN2CCCCC2)nn(-c2ccc(Cl)cc2Cl)c1-c1ccc(Cl)cc1 [SR 141716A]
arachidonic acid-induced ear swelling, antagonist by itself ([1]; 5 mg/kg i.p., alone): by itself reduced arachidonic acid-induced ear swelling

C=C1CC[C@@H]2[C@@H](C1)c1c(OC)cc(C(C)(C)CCCCCC)cc1OC2(C)C [L-759,656]
CB1/CB2 binding ratio [2]: > 1000

SR 144528
anti-inflammatory effect, antagonist by itself ([1]; 0.5 mg/kg, alone): did not by itself induce an anti-inflammatory effect

O=C(O)Cc1ccccc1Nc1c(Cl)cccc1Cl [diclofenac, reference compound]
paw volume compared to vehicle ([3]; 10 mg/kg i.p. every 3 days, positive control): smaller paw volume compared to the vehicle treated rats, but this difference is not statistically significant

CCCCCCC(C)(C)c1cc(OC)c([C@H]2C=C(CO)[C@H]3CC2C3(C)C)c(OC)c1 (single isomer, unassigned; (+)) [HU-308, (+)-(1-a-H,-(3-H,5-a-H)-4-(2,6-dimethoxy-4-(1,1-dimethylheptyl)phenyl]-6,6-dimethylbicycloj3.1.1]hept-2-ene-2-carbinol]
formalin-induced peripheral pain (licks of injected hindpaw), late phase ([4]; 50 mg/kg i.p., 90 min before formalin, late phase (25-60 min)): reduced peripheral pain during the late phase of pain behavior | formalin-induced peripheral pain, early versus late phase ([4]; 50 mg/kg i.p., early (5 min) and late (25-60 min) phase): effects were only observed during the late phase | peripheral analgetic effect after CB1 antagonist SR 141716A ([4]; SR 141716A injected 15 min before HU-308): not by SR 141716A | peripheral analgetic effect after CB2 antagonist SR 144528 ([4]; SR144528 injected 15 min before HU-308 50 mg/kg i.p.): prevented by SR 144528 | incidence and severity of swelling of the paws ([3]; 2-15 mg/kg i.p. every three days or once daily): decreased incidence and severity of swelling of the paws | severity of acid induced inflammatory bowel disease ([5]; 10 and 20 mg/kg i.p. daily for seven days): can reduce the severity of acid induced inflammatory bowel disease | reduction of pathological lesion severity in the gastrointestinal tract (gross pathology score) compared to vehicle ([5]; i.p. daily for 7 days, p<0.05 for 10 mg/kg, p=0.052 for 20 mg/kg): 35% | activity in an open field trial (ambulation, rearing) [6, 10]: no decrease in their activity in an open field trial | analgesia on a hot plate [6, 10]: no analgesia on a hot plate | body temperature [6, 10]: no reduction in body temperature | catalepsy (immobility on a ring) [6, 10]: no catalepsy | activity in the tetrad of behavioral tests specific for THC-type CNS activity ([6]; mice, summary): no activity | mean clinical score of EAE [7]: diminution of mean clinical score | effect on blood pressure ([8]; 30 mg/kg i.v., anesthetized cannulated rats): lowers blood pressure | hypotensive effect after CB1 antagonist SR 141716A ([8]; SR141716A 3 mg/kg injected 5 min prior to HU-308 30 mg/kg i.v.): not by the CB1 antagonist SR 141716A | hypotensive effect after CB2 antagonist SR 144528 ([8]; SR144528 1 mg/kg injected 5 min prior to HU-308 30 mg/kg i.v.): blocked by the CB2 antagonist SR 144528 | time for blood pressure effect to return to normal after administration ([8]; i.v. bolus, preliminary observations): < 30 min | effect on blood pressure, lower doses ([8]; i.v. doses lower than 30 mg/kg): did not have a significant effect | inhibition of intestinal mobility ([9]; 20 mg/kg i.p., mice): complete inhibition of intestinal mobility | number of fecal boli voided vs controls ([9]; 100 mg/kg i.p., after 75 min): significantly fewer boli than controls | inhibition of intestinal motility in presence of CB2 antagonist SR144528 ([9]; HU-308 plus SR144528): in part blocked this effect | arachidonic acid-induced ear swelling ([1]; 50 mg/kg i.p.): significant reduction of arachidonic acid-induced ear swelling | anti-inflammatory effect of HU-308 after CB1 antagonist SR 141716A ([1]; SR 141716A 5 mg/kg administered 15 min before HU-308 50 mg/kg i.p.): did not prevent the anti-inflammatory effect of HU-308 | anti-inflammatory effect of HU-308 after CB2 antagonist SR 144528 ([1]; SR 144528 0.5 mg/kg before HU-308 50 mg/kg i.p.): reduced the anti-inflammatory effect of HU-308
